Where two headings read alike, the source gives them in different places.
Tests used:
[1] = test system: HCV replicons with genotype 4a patient proteases; assay: Transient replicon assay with proteases from HCV-infected patients; assay type: cell-based; settings: Hepatitis C virus
Description: Each of the NS3 gene sequences from genotypes 1, 2, and 4, with the exception of two genotype 2b sequences, was derived from serum or plasma from an HCV-infected patient by bulk PCR amplification, producing a population of sequences representing the viral quasispecies. Two genotype 2b sequences were synthesized based on the consensus sequences of the respective samples. One genotype 3a sequence was synthesized based on a consensus sequence from the sequences available in the Los Alamos HCV sequence database, and another genotype 3a sequence was a clonal sequence derived from a patient sample. The genotype 5a sequence (strain SA13) was synthesized based on the published sequence of the HCV isolate ([48]).
Transient replicons containing NS3 from clinical samples from HCV genotype 1a- and 1b-infected patients were described previously ([28]).
For the analysis of NS3 sequences from patients, we defined a polymorphism to be an amino acid difference in the sequence of a baseline sample relative to the sequence of the appropriate HCV subtype reference sequence: genotype 1a H77 (GenBank accession number NC_004102), genotype 1b Con1 (GenBank accession number AJ238799), genotype 2a JFH-1 (GenBank accession number AB047639), genotype 2b HC-J8 (GenBank accession number D10988), genotype 3a S52 (GenBank accession number GU814263), genotype 4a ED43 (GenBank accession number GU814265), genotype 4d QC382 (GenBank accession number FJ462437), and genotype 5a SA13 (GenBank accession number AF064490). […] All DNA sequencing was performed by the Sanger sequencing method.

HIV-1 IIIB strain = assay: HIV-1 antiviral cytoprotection assay, CEM-SS cells; assay type: cell-based, human immunodeficiency virus type 1; settings: Human immunodeficiency virus 1, IIIB, read-out: Mean EC50 ± SD
Chymase = molecular target: T1, Chymase (Homo sapiens, UniProt P23946); assay: Human protease biochemical assay; settings: read-out: Mean IC50 ± SD
T1 construct: purchased Sigma-Aldrich
Method: (§1) […]; catalog number M9771; Sigma-Aldrich), and 0.05 U/ml elastase (excitation wavelength = 370 nm, emission wavelength = 460 nm); (ii) for chymase, 0.4 M Tris, pH 8.0, 1.8 M NaCl, 9% dimethyl sulfoxide, 0.4 mM substrate (Suc-AAF-AMC; catalog number S8758; Sigma-Aldrich), and 0.063 U/ml chymase (excitation wavelength = 370 nm, emission wavelength = 460 nm); (iii) for cathepsin B, 50 mM MES (morpholineethanesulfonic acid), pH 6.0, 50 mM NaCl, 2 mM EDTA, 0.1% Triton X-100, 0.4 mM substrate (Z-RR-AMC; catalog number C5429; Sigma-Aldrich), and 1.7 μg/ml cathepsin B (excitation wavelength = 370 nm, emission wavelength = 460 nm); (iv and v) for chymotrypsin types II and VII, 50 mM Tris, pH 8, 10 mM CaCl2, 0.1% Triton X-100, 0.25 mM substrate (Suc-AAF-AMC; catalog number S8758; Sigma-Aldrich), and 0.5 nM chymotrypsin type II or type VII (excitation wavelength = 370 nm, emission wavelength = 460 nm); (vi) for kallikrein, 50 mM Tris, pH 7.4, 0.5 mM EDTA, 0.05% Tween 20, 150 mM NaCl, 0.35 mM substrate (H-Pro-Phe-Arg-AMC; catalog number I-1295; Bachem), and 2 nM kallikrein (excitation wavelength = 355 nm, emission wavelength = 460 nm); and (vii) for urokinase, 50 mM Tris, pH 7.4, 0.15 M NaCl, 0.5% Pluronic F-68, 0.2 mM substrate (pyro-Glu Arg-p-nitroanilide-HCl; catalog number S-2444; Diapharma), and 3 nM urokinase (absorbance at 405 nm).

Cathepsin B = molecular target: T2, Cathepsin B (Homo sapiens, UniProt P07858); assay: Human protease biochemical assay; settings: read-out: Mean IC50 ± SD
T2 construct: purchased Sigma-Aldrich
Method: as §1

Chymotrypsin type II = molecular target: T3, Chymotrypsin type II (Bos taurus, UniProt P00766); assay: Human protease biochemical assay; settings: read-out: Mean IC50 ± SD
T3 construct: purchased Sigma-Aldrich
Method: as §1

Chymotrypsin type VII = molecular target: T4, Chymotrypsin type VII (Bos taurus, UniProt P00766); assay: Human protease biochemical assay; settings: read-out: Mean IC50 ± SD
T4 construct: purchased Sigma-Aldrich
Method: as §1

Elastase = molecular target: T5, Elastase (Homo sapiens, UniProt P08246); assay: Human protease biochemical assay; settings: read-out: Mean IC50 ± SD
T5 construct: purchased Sigma-Aldrich
Method: as §1

Urokinase = molecular target: T6, Urokinase (Homo sapiens, UniProt P00749); assay: Human protease biochemical assay; settings: read-out: Mean IC50 ± SD
T6 construct: purchased Sigma-Aldrich
Method: as §1

[2] = test system: HCV genotype 1 to 6 NS3/4A proteases; assay: HCV NS3/4A protease biochemical assay, all genotypes; design: species or system Hepatitis C virus; settings: read-out: IC50, range over proteases
Description: . […] Genes encoding NS3/4A were derived from laboratory strains 1a-H77 (GenBank accession number NC_004102) and 1b-N (GenBank accession number AF139594) or from clinical samples from patients infected with genotype 2a, 2b, 3a, or 4a. All patients provided written informed consent. Clinical studies were designed according to Good Clinical Practice guidelines, the Declaration of Helsinki, and applicable local regulations, with independent ethics committee or institutional review board approval for all study sites. The genotype 5a NS3/4A gene sequence was synthetically constructed based on the sequence of the clinical isolate SA13 (GenBank accession number AF064490) ([48]), whereas the genotype 6a NS3/4A gene sequence was synthetically constructed based on a consensus sequence derived from the alignment of 15 genotype 6a sequences available in GenBank. The NS3/4A genes were each cloned into the protein expression vector pET14b (Novagen, Madison, WI), and a clone with an NS3/4A protease sequence that matched the consensus sequence for each sample was subsequently selected for protein expression and purification. Protease activity was measured by continuous monitoring of the fluorescence change associated with the cleavage of a fluorogenic depsipeptide (EDANS/DABCYL) substrate using a purified recombinant HCV NS3/4A protease as described previously ([49]). […]

T5 sequence (P08246 30-247 limits assumed): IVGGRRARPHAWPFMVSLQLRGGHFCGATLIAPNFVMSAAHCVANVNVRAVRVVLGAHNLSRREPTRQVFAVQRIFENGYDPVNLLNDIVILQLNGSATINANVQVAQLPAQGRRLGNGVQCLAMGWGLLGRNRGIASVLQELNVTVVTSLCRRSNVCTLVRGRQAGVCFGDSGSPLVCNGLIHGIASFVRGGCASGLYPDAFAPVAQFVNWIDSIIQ
T1 sequence (P23946 22-247): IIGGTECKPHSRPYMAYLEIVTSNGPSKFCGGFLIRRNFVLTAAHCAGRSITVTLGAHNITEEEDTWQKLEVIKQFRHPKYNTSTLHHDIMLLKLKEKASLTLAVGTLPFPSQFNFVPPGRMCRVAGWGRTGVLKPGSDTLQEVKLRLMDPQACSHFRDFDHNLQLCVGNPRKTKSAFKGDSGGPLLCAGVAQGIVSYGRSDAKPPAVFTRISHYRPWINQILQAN

## CC(C)(C)[C@@H]1NC(=O)O[C@@H]2CCC[C@H]2OC/C=C/C(F)(F)c2nc3ccccc3nc2O[C@@H]2C[C@@H](C(=O)N[C@]3(C(=O)NS(=O)(=O)C4(C)CC4)C[C@H]3C(F)F)N(C2)C1=O [Glecaprevir, (3aR,7S,10S,12R,21E,24aR)-7-tert-butyl-N-[(1R,2R)-2-(difluoromethyl)-1-{[(1-methylcyclopropyl)sulfonyl]carbamoyl}cyclopropyl]-20,20-difluoro-5,8-dioxo-2,3,3a,5,6,7,8,11,12,20,23,24a-dodecahydro-1H,10H-9,12-methanocyclopenta[18,19][1,10,17,3,6]trioxadiazacyclononadecino[11,12-b]quinoxaline-10-carboxamide]
[1]; read-out: EC50 Median, subtype 4a, T54S, 1 sample
  EC50: 0.44 nM
[1]; read-out: EC50 Median, subtype 4a, no polymorphism, 5 samples
  EC50: 0.39 nM
[1]; read-out: EC50 Range, subtype 4a, no polymorphism, 5 samples
  EC50: 0.31 to 0.55 nM
HIV-1 IIIB strain
  EC50: > 22000 nM
Chymase
  IC50: > 200000 nM
Cathepsin B
  IC50: > 200000 nM
Chymotrypsin type II
  IC50: > 200000 nM
Chymotrypsin type VII
  IC50: > 200000 nM
Elastase
  IC50: > 200000 nM
Urokinase
  IC50: > 200000 nM
[2]
  IC50: 3.5 to 11.3 nM

From publication PMC5740381 (Antimicrobial Agents and Chemotherapy, 2017)
